In PubChem BioAssay AID2742 (NMMLSC, 2010):
Active and inactive are the calls of the source.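 The calls were made as follows: active = fitted half-maximal concentration for changing background-corrected GFP signal at or below a set limit; inactive = the rest.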

test: modulators of MEP2-GFP levels in yeast, dose response, S. cerevisiae, flow cytometry GFP, MLPCN hits (AID 2742);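 also: GFP tag reports level of MEP2 protein as a downstream target of TOR signalling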; conditions: S. cerevisiae MEP2-GFP strain, flow cytometry fluorescence, 3 h; at 33 µM (top of the series)

Compound | GFP fluorescence (kMESF), higher = increase
Cc1ccsc1/C=C1\C(=O)NC(=S)N(C)C1=O | 3.66 kMESF (inactive)
COc1ccc(N/N=C(\C#N)C(N)=O)cc1 | 1.24 kMESF (inactive)
O=C1ON=C(c2ccccc2)/C1=C/c1ccc(-c2ccccc2[N+](=O)[O-])o1 | 5.5 kMESF (inactive)
O=C(NC(=S)NNC(=O)c1cnccn1)c1ccc(Cl)cc1 | 3.51 kMESF (inactive)
CCOC(=O)c1cc(-c2ccc(/C=C3/C(=O)NC(=O)C(C#N)=C3C)o2)ccc1Cl | 6.22 kMESF (inactive)
Cc1ccccc1OCC(=O)NNC(=S)NC(=O)c1ccco1 | 5.41 kMESF (inactive)
CCOC(=O)CS(=O)(=O)c1nc(-c2ccccc2)cc(C(F)(F)F)n1 | 6.41 kMESF (inactive)
O=[N+]([O-])c1ccc(S(=O)(=O)c2cccc(C(F)(F)F)c2)nc1 | 4.85 kMESF (inactive)
CS(=O)(=O)c1sc(C#N)c2c1C(=O)CC(c1ccccc1)C2 (configuration not stated) | 4.8 kMESF (inactive)
COc1ccccc1N=Nc1ccc(O)c2ncccc12 | 5.16 kMESF (inactive)
COc1cc(N2C(=O)C=CC2=O)c(OC)cc1Cl | 3.78 kMESF (inactive)
Cc1cc(C(=O)Nc2nc(-c3ccccn3)cs2)ccc1[N+](=O)[O-] | 4.48 kMESF (inactive)
CC1(c2ccccc2)ON(c2ccccc2C(F)(F)F)C1=O (configuration not stated) | 4.18 kMESF (inactive)
Cc1ccc(NC(=O)c2nc(S(=O)(=O)Cc3ccccc3)ncc2Cl)cc1 | 3.33 kMESF (inactive)
O=C1C2C3C=CC(CO)(O3)C2C(=O)N1c1ccc(-c2ccccc2)cc1 (configuration not stated) | 4.74 kMESF (inactive)
CCc1ccc(OCC(=O)NNC(=S)NC(=O)C2CC2)c(Br)c1 | 5.6 kMESF (inactive)
Nc1ccccc1SC(C[N+](=O)[O-])c1ccccc1 (configuration not stated) | 3.67 kMESF (inactive)
CCCS(=O)(=O)c1nnnn1-c1cccc(OC)c1 | 2.18 kMESF (inactive)
COc1ccc(C(=O)/C=C2/C(=O)Nc3ccccc32)c(OC)c1 | 3.34 kMESF (inactive)
Cc1ccc(NN2C(=O)C=C(c3ccc(Cl)cc3)C2=O)cc1 | 4.9 kMESF (inactive)
O=C1C=CC(=O)N1c1ccc(Sc2ccc([N+](=O)[O-])cc2)cc1 | 2.59 kMESF (inactive)

Compound | GFP fluorescence (kMESF), higher = increase
Cc1ccc(N=Nc2ccc(O)c3ncccc23)cc1 | 3.18 kMESF (inactive)
O=C(c1ccccc1)c1ccccc1N1C(=O)C=CC1=O | 4.22 kMESF (inactive)
Cc1ccc(C(=O)NNC(=S)NC(=O)COc2ccccc2)cc1 | 6.29 kMESF (inactive)
O=C1C=CC(=O)N1c1ccc(N2CCCCC2)cc1 | 5.69 kMESF (inactive)
COc1ccc2c(/C=C/c3cc[n+](C)cc3)c[nH]c2c1 | 4.86 kMESF (inactive)
O=C(Nc1ccc(O)cc1)C1CCCN1S(=O)(=O)c1ccc(F)cc1 (configuration not stated) | 1.62 kMESF (inactive)
Cn1ncc2c(O/N=C(\N)c3ccc(C(C)(C)C)cc3)ncnc21 | 3.78 kMESF (inactive)
O=C(NOC(=O)c1ccccc1)c1ccccc1 | 5.42 kMESF (inactive)
Cc1c(C)c2ccc(Oc3ccc([N+](=O)[O-])cc3C(F)(F)F)c(C)c2oc1=O | 2 kMESF (inactive)
O=C1C(Cl)=C(NCCc2ccccc2)C(=O)N1CCc1ccccc1 | 2.91 kMESF (inactive)
CC(=O)Oc1ccc(/C=c2\sc3ncnn3c2=O)cc1 | 3.91 kMESF (inactive)
Cc1ccc(/C=C2\SC(=S)N(Cc3ccccc3)C2=O)o1 | 9.98 kMESF (inactive)
COc1ccc(C(=O)NC(=S)NNC(=O)c2cnccn2)cc1OC | 2.46 kMESF (inactive)
COc1ccc(-c2cc(C(F)(F)F)nc(S(C)(=O)=O)n2)cc1 | 5.2 kMESF (inactive)
Clc1ccc(N=c2ssnc2Cl)cc1 | 4.8 kMESF (inactive)
CCc1cccc2sc(N3CCN(C(=O)c4ccc([N+](=O)[O-])o4)CC3)nc12 | 0.16 kMESF (inactive)
Nc1c(C(=O)c2cccs2)sc2nsc(SCCN3CCCCC3)c12 | 15.6 kMESF (inactive)
CCN(CC(=O)Nc1cc(S(=O)(=O)N2CCOCC2)ccc1Cl)Cc1ccccc1 | 2.25 kMESF (inactive)
CCOC(=O)CS(=O)(=O)c1nc(-c2ccc(F)cc2)cc(C(F)(F)F)n1 | 5.21 kMESF (inactive)
Cc1c(NC2=C(Cl)C(=O)N(c3ccccc3)C2=O)c(=O)n(-c2ccccc2)n1C | 2.91 kMESF (inactive)
O=c1/c(=C/c2cccc3ccccc23)sc2ncnn12 | 4.23 kMESF (inactive)

Compound | GFP fluorescence (kMESF), higher = increase
Cc1cccc(Nc2nc(-c3ccccn3)cs2)n1 | 5.01 kMESF (inactive)
N/C(Cc1ccc(Cl)cc1Cl)=N\OC(=O)c1cccs1 | 4.76 kMESF (inactive)
O=C(Nc1cccc(C(F)(F)F)c1)Oc1ccc(Cl)c2cccnc12 | 2.78 kMESF (inactive)
COc1ccccc1C(=O)NNC(=S)NC(=O)c1ccco1 | 3.64 kMESF (inactive)
[O-][n+]1cccc2c(Br)cc(Br)c(O)c21 | 5.76 kMESF (inactive)
COc1ccc(N2C(=O)CC(Sc3ncn[nH]3)C2=O)c(OC)c1 (configuration not stated) | 3.82 kMESF (inactive)
O=C1ON=C(c2ccccc2)/C1=C/c1ccco1 | 4.24 kMESF (inactive)
Cc1c(N2C(=O)/C(=C\c3ccccc3O)SC2=S)c(=O)n(-c2ccccc2)n1C | 4.71 kMESF (inactive)
COc1ccc2c(c1)c(/C=C/c1cc[n+](C)cc1)cn2C | 4.56 kMESF (inactive)
CC(=O)Oc1ccc(N2C(=O)C3C4C=CC(CO)(O4)C3C2=O)cc1 (configuration not stated) | 3.1 kMESF (inactive)
Oc1ccc(CNc2ccccc2)c2cccnc12 | 3.28 kMESF (inactive)
O=S1(=O)C=C(Sc2nc3ccccc3s2)c2ccccc21 | 5.18 kMESF (inactive)
O=C(NC(=S)Nc1ccc2oc(=O)ccc2c1)c1cccc(Cl)c1 | 1.7 kMESF (inactive)
Cc1cccc(NC(c2ccc(C)s2)c2ccc3ccc(C)nc3c2O)n1 (configuration not stated) | 8.62 kMESF (inactive)
CC(=O)n1cc(C(C[N+](=O)[O-])SCCN)c2ccccc21 (configuration not stated) | 3.64 kMESF (inactive)
CCOc1ccc(NC2=C(Cl)C(=O)N(Cc3ccccc3)C2=O)cc1 | 3.61 kMESF (inactive)
O=c1cc(-c2ccccc2)cc(-c2ccccc2)n1O | 4.49 kMESF (inactive)
Oc1c(CN2CCN(c3ccc(F)cc3)CC2)cc(Cl)c2cccnc12 | 10.7 kMESF (inactive)
Cc1cc(=O)oc2cc(Oc3ccc([N+](=O)[O-])cc3C(F)(F)F)ccc12 | 2.42 kMESF (inactive)
O=C(Nc1nnc(-c2ccc(F)cc2)o1)c1cccc([N+](=O)[O-])c1 | 2.99 kMESF (inactive)
